# Source: patent US8192962B2, “Processes for detecting toxic substances” (Daikin Industries, Ltd., priority 2001, dated 2012)
# Test system: Metabolism protein genes
# Assay: DNA chip mRNA expression in yeast, metabolism protein genes (Table 7)
# Assay type: cell-based, Saccharomyces cerevisiae S288C
# Procedure, shortened: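 S. cerevisiae S288C grown at 25° C in YPD were exposed in log phase for two hours to one toxic chemical at a growth-inhibiting, non-lethal concentration; untreated cells served as control. Poly(A) mRNA was reverse-transcribed with Cy3/Cy5-dUTP and hybridized to a whole-genome yeast DNA chip at 65° C for over 12 hours; values are fluorescence ratios versus untreated.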
smiles,measurement,setting,value
"COc1cc(CNC(=O)CCCCC=CC(C)C)ccc1O [(12), 8-methyl-N-vanillyl-6-nonenamide]",The level of expressed mRNA in the presence of chemical substance/The level of expressed mRNA in the absence of chemical substance,yeast gene YAL012W,1.1
same,The level of expressed mRNA in the presence of chemical substance/The level of expressed mRNA in the absence of chemical substance,yeast gene YAL038W,1.2
same,level of expressed mRNA in the presence/in the absence of chemical substance,yeast gene YBR003W,0.8
same,level of expressed mRNA in the presence/in the absence of chemical substance,yeast gene YBR011C,1.1
same,level of expressed mRNA in the presence/in the absence of chemical substance,yeast gene YBR020W,0.8
same,The level of expressed mRNA in the presence of chemical substance/The level of expressed mRNA in the absence of chemical substance,yeast gene YBR023C,0.8
same,The level of expressed mRNA in the presence of chemical substance/The level of expressed mRNA in the absence of chemical substance,yeast gene YBR029C,1.3
same,The level of expressed mRNA in the presence of chemical substance/The level of expressed mRNA in the absence of chemical substance,yeast gene YBR183W,1.2
same,The level of expressed mRNA in the presence of chemical substance/The level of expressed mRNA in the absence of chemical substance,yeast gene YBR222C,0.9
same,The level of expressed mRNA in the presence of chemical substance/The level of expressed mRNA in the absence of chemical substance,yeast gene YBR256C,1.7
same,The level of expressed mRNA in the presence of chemical substance/The level of expressed mRNA in the absence of chemical substance,yeast gene YCL009C,1.7
same,The level of expressed mRNA in the presence of chemical substance/The level of expressed mRNA in the absence of chemical substance,yeast gene YCL018W,1.6
same,The level of expressed mRNA in the presence of chemical substance/The level of expressed mRNA in the absence of chemical substance,yeast gene YCL064C,0.7
same,level of expressed mRNA in the presence/in the absence of chemical substance,yeast gene YCR010C,0.8
same,level of expressed mRNA in the presence/in the absence of chemical substance,yeast gene YCR034W,0.5
same,The level of expressed mRNA in the presence of chemical substance/The level of expressed mRNA in the absence of chemical substance,yeast gene YCR048W,0.9
same,The level of expressed mRNA in the presence of chemical substance/The level of expressed mRNA in the absence of chemical substance,yeast gene YCR098C,1.3
same,The level of expressed mRNA in the presence of chemical substance/The level of expressed mRNA in the absence of chemical substance,yeast gene YDL174C,2.8
same,The level of expressed mRNA in the presence of chemical substance/The level of expressed mRNA in the absence of chemical substance,yeast gene YDR019C,0.7
same,level of expressed mRNA in the presence/in the absence of chemical substance,yeast gene YDR050C,1.4
same,level of expressed mRNA in the presence/in the absence of chemical substance,yeast gene YDR073W,0.8
same,level of expressed mRNA in the presence/in the absence of chemical substance,yeast gene YDR123C,0.5
same,level of expressed mRNA in the presence/in the absence of chemical substance,yeast gene YDR178W,1.3
same,level of expressed mRNA in the presence/in the absence of chemical substance,yeast gene YDR277C,0.9
same,level of expressed mRNA in the presence/in the absence of chemical substance,yeast gene YDR284C,0.9
same,level of expressed mRNA in the presence/in the absence of chemical substance,yeast gene YDR345C,1.4
same,The level of expressed mRNA in the presence of chemical substance/The level of expressed mRNA in the absence of chemical substance,yeast gene YDR380W,0.4
same,level of expressed mRNA in the presence/in the absence of chemical substance,yeast gene YDR400W,0.4
same,level of expressed mRNA in the presence/in the absence of chemical substance,yeast gene YDR408C,0.6
same,level of expressed mRNA in the presence/in the absence of chemical substance,yeast gene YDR483W,0.8
same,The level of expressed mRNA in the presence of chemical substance/The level of expressed mRNA in the absence of chemical substance,yeast gene YDR497C,0.9
same,The level of expressed mRNA in the presence of chemical substance/The level of expressed mRNA in the absence of chemical substance,yeast gene YDR502C,1.3
same,The level of expressed mRNA in the presence of chemical substance/The level of expressed mRNA in the absence of chemical substance,yeast gene YDR516C,1.1
same,level of expressed mRNA in the presence/in the absence of chemical substance,yeast gene YEL063C,1.1
same,level of expressed mRNA in the presence/in the absence of chemical substance,yeast gene YER015W,0.9
same,The level of expressed mRNA in the presence of chemical substance/The level of expressed mRNA in the absence of chemical substance,yeast gene YER026C,1.7
same,The level of expressed mRNA in the presence of chemical substance/The level of expressed mRNA in the absence of chemical substance,yeast gene YER053C,1.7
same,The level of expressed mRNA in the presence of chemical substance/The level of expressed mRNA in the absence of chemical substance,yeast gene YER069W,0.8
same,level of expressed mRNA in the presence/in the absence of chemical substance,yeast gene YER081W,1.0
same,The level of expressed mRNA in the presence of chemical substance/The level of expressed mRNA in the absence of chemical substance,yeast gene YER096W,0.9
same,level of expressed mRNA in the presence/in the absence of chemical substance,yeast gene YER120W,1.3
same,The level of expressed mRNA in the presence of chemical substance/The level of expressed mRNA in the absence of chemical substance,yeast gene YER178W,1.3
same,level of expressed mRNA in the presence/in the absence of chemical substance,yeast gene YFL011W,0.9
same,The level of expressed mRNA in the presence of chemical substance/The level of expressed mRNA in the absence of chemical substance,yeast gene YFL014W,4.3
same,The level of expressed mRNA in the presence of chemical substance/The level of expressed mRNA in the absence of chemical substance,yeast gene YFL030W,1.2
same,The level of expressed mRNA in the presence of chemical substance/The level of expressed mRNA in the absence of chemical substance,yeast gene YFL031W,1.0
same,The level of expressed mRNA in the presence of chemical substance/The level of expressed mRNA in the absence of chemical substance,yeast gene YFL056C,1.0
same,The level of expressed mRNA in the presence of chemical substance/The level of expressed mRNA in the absence of chemical substance,yeast gene YFL057C,1.0
same,The level of expressed mRNA in the presence of chemical substance/The level of expressed mRNA in the absence of chemical substance,yeast gene YFR047C,1.7
same,level of expressed mRNA in the presence/in the absence of chemical substance,yeast gene YGL012W,0.6
same,The level of expressed mRNA in the presence of chemical substance/The level of expressed mRNA in the absence of chemical substance,yeast gene YGL022W,0.7
same,level of expressed mRNA in the presence/in the absence of chemical substance,yeast gene YGL115W,0.9
same,The level of expressed mRNA in the presence of chemical substance/The level of expressed mRNA in the absence of chemical substance,yeast gene YGL126W,0.6
same,level of expressed mRNA in the presence/in the absence of chemical substance,yeast gene YGL205W,1.1
same,The level of expressed mRNA in the presence of chemical substance/The level of expressed mRNA in the absence of chemical substance,yeast gene YGL209W,1.3
same,The level of expressed mRNA in the presence of chemical substance/The level of expressed mRNA in the absence of chemical substance,yeast gene YGL248W,0.8
same,The level of expressed mRNA in the presence of chemical substance/The level of expressed mRNA in the absence of chemical substance,yeast gene YGR037C,1.5
same,The level of expressed mRNA in the presence of chemical substance/The level of expressed mRNA in the absence of chemical substance,yeast gene YGR055W,0.9
same,level of expressed mRNA in the presence/in the absence of chemical substance,yeast gene YGR096W,0.8
same,level of expressed mRNA in the presence/in the absence of chemical substance,yeast gene YGR191W,0.7
same,The level of expressed mRNA in the presence of chemical substance/The level of expressed mRNA in the absence of chemical substance,yeast gene YGR194C,0.8
same,level of expressed mRNA in the presence/in the absence of chemical substance,yeast gene YGR204W,1.0
same,The level of expressed mRNA in the presence of chemical substance/The level of expressed mRNA in the absence of chemical substance,yeast gene YGR244C,1.9
same,The level of expressed mRNA in the presence of chemical substance/The level of expressed mRNA in the absence of chemical substance,yeast gene YGR256W,1.5
same,The level of expressed mRNA in the presence of chemical substance/The level of expressed mRNA in the absence of chemical substance,yeast gene YGR282C,1.3
same,level of expressed mRNA in the presence/in the absence of chemical substance,yeast gene YGR288W,0.9
same,level of expressed mRNA in the presence/in the absence of chemical substance,yeast gene YHR025W,0.9
same,The level of expressed mRNA in the presence of chemical substance/The level of expressed mRNA in the absence of chemical substance,yeast gene YHR111W,0.9
same,level of expressed mRNA in the presence/in the absence of chemical substance,yeast gene YHR123W,0.7
same,The level of expressed mRNA in the presence of chemical substance/The level of expressed mRNA in the absence of chemical substance,yeast gene YHR137W,0.6
same,The level of expressed mRNA in the presence of chemical substance/The level of expressed mRNA in the absence of chemical substance,yeast gene YHR174W,1.5
same,The level of expressed mRNA in the presence of chemical substance/The level of expressed mRNA in the absence of chemical substance,yeast gene YHR176W,1.2
same,level of expressed mRNA in the presence/in the absence of chemical substance,yeast gene YHR210C,0.5
same,level of expressed mRNA in the presence/in the absence of chemical substance,yeast gene YIL006W,0.9
same,The level of expressed mRNA in the presence of chemical substance/The level of expressed mRNA in the absence of chemical substance,yeast gene YIL045W,1.5
same,The level of expressed mRNA in the presence of chemical substance/The level of expressed mRNA in the absence of chemical substance,yeast gene YIL107C,1.1
same,The level of expressed mRNA in the presence of chemical substance/The level of expressed mRNA in the absence of chemical substance,yeast gene YIL154C,1.1
same,The level of expressed mRNA in the presence of chemical substance/The level of expressed mRNA in the absence of chemical substance,yeast gene YIL155C,1.4
same,The level of expressed mRNA in the presence of chemical substance/The level of expressed mRNA in the absence of chemical substance,yeast gene YIL167W,0.7
same,The level of expressed mRNA in the presence of chemical substance/The level of expressed mRNA in the absence of chemical substance,yeast gene YIR034C,1.4
same,The level of expressed mRNA in the presence of chemical substance/The level of expressed mRNA in the absence of chemical substance,yeast gene YIR036C,1.2
same,The level of expressed mRNA in the presence of chemical substance/The level of expressed mRNA in the absence of chemical substance,yeast gene YJL031C,1.3
same,The level of expressed mRNA in the presence of chemical substance/The level of expressed mRNA in the absence of chemical substance,yeast gene YJL068C,1.7
same,The level of expressed mRNA in the presence of chemical substance/The level of expressed mRNA in the absence of chemical substance,yeast gene YJL088W,0.7
same,The level of expressed mRNA in the presence of chemical substance/The level of expressed mRNA in the absence of chemical substance,yeast gene YJL099W,1.0
same,level of expressed mRNA in the presence/in the absence of chemical substance,yeast gene YJL121C,0.6
same,level of expressed mRNA in the presence/in the absence of chemical substance,yeast gene YJL167W,1.3
same,The level of expressed mRNA in the presence of chemical substance/The level of expressed mRNA in the absence of chemical substance,yeast gene YJL172W,1.1
same,level of expressed mRNA in the presence/in the absence of chemical substance,yeast gene YJL216C,1.0
same,The level of expressed mRNA in the presence of chemical substance/The level of expressed mRNA in the absence of chemical substance,yeast gene YJL219W,1.1
same,level of expressed mRNA in the presence/in the absence of chemical substance,yeast gene YJR077C,1.0
same,The level of expressed mRNA in the presence of chemical substance/The level of expressed mRNA in the absence of chemical substance,yeast gene YJR137C,1.4
